From US7781591B2, “Substituted 3-cyanopyridines as protein kinase inhibitors” (Wyeth LLC, priority 2006, dated 2010)
pIC50: −log10 of the molar value.

Each molecule was assayed against T1, purified recombinant full length PKC theta (Panvera, P2996) (Homo sapiens, UniProt Q04759) (assay: Radioactive kinase assay for inhibition of full length (FL) PKCθ). Conditions: average value.
T1 construct: purified recombinant full length PKC theta (Panvera, P2996); purchased Panvera P2996
Type: biochemical
Description: This assay is based on the phosphorylation of a biotinylated substrate by a kinase utilizing radiolabeled ATP (ATP γ P33). The substrate was a biotinylated peptide with a sequence of biotin-[…]-C(O)NH2. […] The assay buffer was composed of 100 mM Hepes, pH7.5, 2 mM MgCl2, 20 mM β-glycerophosphate and 0.008% TritonX 100. A reaction mixture of ATP, ATP γ P33 (PerkinElmer), DTT, and the enzyme was prepared in the assay buffer and added to a 96-well polypropylene plate. The compound (diluted in DMSO in a separate 96-well polypropylene plate) was added to the reaction mixture and incubated at room temperature. Following the incubation, the peptide substrate was added to the reaction mixture to initiate the enzymatic reaction. The reaction was terminated with the addition of a stop solution (100 mM EDTA, 0.2% TritonX100, and 20 mM NaHPO4) and transferred from the assay plate to a washed streptavidin-coated 96-well scintiplate (PerkinElmer). […] Counts were recorded for each well as corrected counts per minute (CCPM). The counts were considered corrected because they were adjusted according to a P33 normalization protocol, which corrects for efficiency and background differences between the instrument detectors (software version 4.40.01).
A Radioactive Kinase Assay for Inhibition of Full Length (FL) PKCθ Inhibitors
This assay differs from what was described above in that the enzyme used was purified recombinant full length PKC theta (Panvera, P2996).

T1 sequence (Q04759 whole entry): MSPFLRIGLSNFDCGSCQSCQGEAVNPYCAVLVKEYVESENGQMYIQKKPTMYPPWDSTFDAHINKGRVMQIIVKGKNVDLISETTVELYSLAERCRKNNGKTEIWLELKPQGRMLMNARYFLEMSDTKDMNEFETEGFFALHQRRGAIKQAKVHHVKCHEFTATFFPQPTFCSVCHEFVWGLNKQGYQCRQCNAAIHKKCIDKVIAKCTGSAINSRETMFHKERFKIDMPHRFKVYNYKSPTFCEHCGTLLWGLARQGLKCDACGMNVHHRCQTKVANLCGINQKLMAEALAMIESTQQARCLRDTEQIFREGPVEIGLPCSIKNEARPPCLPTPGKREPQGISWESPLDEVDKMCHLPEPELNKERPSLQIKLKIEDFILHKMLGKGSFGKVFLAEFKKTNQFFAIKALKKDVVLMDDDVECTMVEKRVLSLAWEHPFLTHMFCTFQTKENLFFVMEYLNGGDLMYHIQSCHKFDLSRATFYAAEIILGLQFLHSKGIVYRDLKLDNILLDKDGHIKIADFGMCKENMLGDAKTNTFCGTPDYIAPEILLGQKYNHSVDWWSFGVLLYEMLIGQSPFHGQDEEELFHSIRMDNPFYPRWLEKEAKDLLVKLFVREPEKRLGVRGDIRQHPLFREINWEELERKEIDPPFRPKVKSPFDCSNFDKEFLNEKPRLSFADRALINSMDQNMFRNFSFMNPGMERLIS

| pIC50 | Structure (SMILES) |
| --- | --- |
| 6.85 | N#Cc1cncc(-c2cccc(-c3cccc(N)c3)c2)c1Nc1ccc2[nH]ccc2c1 [Compound 117, 5-(3′-aminobiphenyl-3-yl)-4-(1H-indol-5-ylamino)nicotinonitrile] |
| 7.05 | N#Cc1ccc(-c2cccc(-c3cncc(C#N)c3Nc3ccc4[nH]ccc4c3)c2)cc1 [Compound 118, 5-(4′-cyanobiphenyl-3-yl)-4-(1H-indol-5-ylamino)nicotinonitrile] |
| 6.77 | N#Cc1cncc(-c2cccc(-c3ccncc3)c2)c1Nc1ccc2[nH]ccc2c1 [Compound 121, 4-(1H-indol-5-ylamino)-5-(3-pyridin-4-ylphenyl)nicotinonitrile] |
| 6.47 | CN(C)C(=O)c1ccc(-c2cccc(-c3cncc(C#N)c3Nc3ccc4[nH]ccc4c3)c2)cc1 [Compound 122, 3′-[5-cyano-4-(1H-indol-5-ylamino)pyridin-3-yl]-N,N-dimethylbiphenyl-4-carboxamide] |
| 6.54 | Cc1cccc(-c2cccc(-c3cncc(C#N)c3Nc3ccc4[nH]ccc4c3)c2)c1 [Compound 127, 4-(1H-indol-5-ylamino)-5-(3′-methylbiphenyl-3-yl)nicotinonitrile] |
| 6.43 | N#Cc1cncc(-c2cccc(-c3cccc(C(=O)O)c3)c2)c1Nc1ccc2[nH]ccc2c1 [Compound 133, 3′-[5-cyano-4-(1H-indol-5-ylamino)pyridin-3-yl]biphenyl-3-carboxylic acid] |
| 6.41 | N#Cc1cncc(-c2cccc(-c3ccc(C(=O)O)cc3)c2)c1Nc1ccc2[nH]ccc2c1 [Compound 134, 3′-[5-cyano-4-(1H-indol-5-ylamino)pyridin-3-yl]biphenyl-4-carboxylic acid] |
| 7.15 | N#Cc1cncc(-c2cccc(-c3cccnc3)c2)c1Nc1ccc2[nH]ccc2c1 [Compound 137, 4-(1H-indol-5-ylamino)-5-(3-pyridin-3-ylphenyl)nicotinonitrile] |
| 7.05 | N#Cc1cncc(-c2cccc(-c3ccsc3)c2)c1Nc1ccc2[nH]ccc2c1 [Compound 141, 4-(1H-indol-5-ylamino)-5-[3-(3-thienyl)phenyl]nicotinonitrile] |

These molecules were tested against T2, human PKCθ full length enzyme (Homo sapiens, UniProt Q04759) (assay: PKCθ IMAP assay (fluorescence polarization)). Conditions: human PKCθ full length enzyme, IMAP; average value; read-out: IC50 PKCθ IMAP.
T2 construct: human PKCθ full length enzyme (Panvera Cat# P2996); purchased Panvera P2996
T2 sequence (Q04759 whole entry): as above
Type: biochemical

| pIC50 | Structure (SMILES) |
| --- | --- |
| 7.24 | Cc1c(Nc2c(C#N)cncc2-c2ccccc2N)ccc2[nH]ccc12 [Compound 573, 5-(2-aminophenyl)-4-[(4-methyl-1H-indol-5-yl)amino]nicotinonitrile] |
| 7.82 | Cc1c(Nc2c(C#N)cncc2-c2ccc(N(C)C)cc2)ccc2[nH]ccc12 [Compound 574, 5-[4-(dimethylamino)phenyl]-4-[(4-methyl-1H-indol-5-yl)amino]nicotinonitrile] |
| 7.44 | Cc1c(Nc2c(C#N)cncc2-c2cccc(N(C)C)c2)ccc2[nH]ccc12 [Compound 575, 5-[3-(dimethylamino)phenyl]-4-[(4-methyl-1H-indol-5-yl)amino]nicotinonitrile] |
| 7.14 | CC(=O)Nc1ccc(-c2cncc(C#N)c2Nc2ccc3[nH]ccc3c2C)cc1 [Compound 576, N-(4-{5-cyano-4-[(4-methyl-1H-indol-5-yl)amino]pyridin-3-yl}phenyl)acetamide] |
| 7.44 | CC(=O)Nc1ccccc1-c1cncc(C#N)c1Nc1ccc2[nH]ccc2c1C [Compound 577, N-(2-{5-cyano-4-[(4-methyl-1H-indol-5-yl)amino]pyridin-3-yl}phenyl)acetamide] |
| 7.01 | CC(=O)Nc1cccc(-c2cncc(C#N)c2Nc2ccc3[nH]ccc3c2C)c1 [Compound 578, N-(3-{5-cyano-4-[(4-methyl-1H-indol-5-yl)amino]pyridin-3-yl}phenyl)acetamide] |
| 5.33 | Cc1c(Nc2c(C#N)cncc2-c2ccc(NC(=O)C(C)C)cc2)ccc2[nH]ccc12 [Compound 579, N-(4-{5-cyano-4-[(4-methyl-1H-indol-5-yl)amino]pyridin-3-yl}phenyl)-2-methylpropanamide] |
| 7.80 | CNC(=O)c1ccc(-c2cncc(C#N)c2Nc2ccc3[nH]ccc3c2C)cc1 [Compound 580, 4-{5-cyano-4-[(4-methyl-1H-indol-5-yl)amino]pyridin-3-yl}-N-methylbenzamide] |
| 7.64 | Cc1c(Nc2c(C#N)cncc2-c2cccc3ccccc23)ccc2[nH]ccc12 [Compound 581, 4-[(4-methyl-1H-indol-5-yl)amino]-5-(1-naphthyl)nicotinonitrile] |
| 7.04 | Cc1c(Nc2c(C#N)cncc2-c2ccc3ccccc3c2)ccc2[nH]ccc12 [Compound 582, 4-[(4-methyl-1H-indol-5-yl)amino]-5-(2-naphthyl)nicotinonitrile] |
| 7.21 | Cc1c(Nc2c(C#N)cncc2-c2ccnn2C)ccc2[nH]ccc12 [Compound 583, 4-[(4-methyl-1H-indol-5-yl)amino]-5-(1-methyl-1H-pyrazol-5-yl)nicotinonitrile] |
| 7.37 | Cc1c(Nc2c(C#N)cncc2-c2cn[nH]c2)ccc2[nH]ccc12 [Compound 584, 4-[(4-methyl-1H-indol-5-yl)amino]-5-(1H-pyrazol-4-yl)nicotinonitrile] |
| 7.06 | Cc1c(Nc2c(C#N)cncc2-c2csc3ccccc23)ccc2[nH]ccc12 [Compound 585, 5-(1-benzothiophen-3-yl)-4-[(4-methyl-1H-indol-5-yl)amino]nicotinonitrile] |
| 8.06 | Cc1c(Nc2c(C#N)cncc2-c2cc3ccccc3n2C)ccc2[nH]ccc12 [Compound 586, 5-(1-methyl-1H-indol-2-yl)-4-[(4-methyl-1H-indol-5-yl)amino]nicotinonitrile] |
| 7.44 | Cc1c(Nc2c(C#N)cncc2-c2ccc3[nH]ccc3c2)ccc2[nH]ccc12 [Compound 587, 5-(1H-indol-5-yl)-4-[(4-methyl-1H-indol-5-yl)amino]nicotinonitrile] |
| 7.24 | Cc1c(Nc2c(C#N)cncc2-c2ccc3cc[nH]c3c2)ccc2[nH]ccc12 [Compound 588, 5-(1H-indol-6-yl)-4-[(4-methyl-1H-indol-5-yl)amino]nicotinonitrile] |
| 6.72 | Cc1c(Nc2c(C#N)cncc2-c2cnc3ccccc3c2)ccc2[nH]ccc12 [Compound 589, 4-[(4-methyl-1H-indol-5-yl)amino]-5-quinolin-3-ylnicotinonitrile] |
| 6.01 | Cc1c(Nc2c(C#N)cncc2-c2cccc3cccnc23)ccc2[nH]ccc12 [Compound 590, 4-[(4-methyl-1H-indol-5-yl)amino]-5-quinolin-8-ylnicotinonitrile] |
| 7.71 | Cc1c(Nc2c(C#N)cncc2-c2ccc3occc3c2)ccc2[nH]ccc12 [Compound 591, 5-(1-benzofuran-5-yl)-4-[(4-methyl-1H-indol-5-yl)amino]nicotinonitrile] |
| 8.16 | Cc1c(Nc2c(C#N)cncc2-c2cccc3ncccc23)ccc2[nH]ccc12 [Compound 592, 4-(4-methyl-1H-indol-5-ylamino)-5-(quinolin-5-yl)nicotinonitrile] |
| 6.92 | Cc1c(Nc2c(C#N)cncc2-c2ccc3c(c2)sc2ccccc23)ccc2[nH]ccc12 [Compound 593, 5-(dibenzo[b,d]thiophen-3-yl)-4-(4-methyl-1H-indol-5-ylamino)nicotinonitrile] |
| 7.42 | Cc1c(Nc2c(C#N)cncc2-c2ccc3sccc3c2)ccc2[nH]ccc12 [Compound 594, 5-(benzo[b]thiophen-5-yl)-4-(4-methyl-1H-indol-5-ylamino)nicotinonitrile] |
| 7.34 | Cc1c(Nc2c(C#N)cncc2-c2cccc3[nH]ccc23)ccc2[nH]ccc12 [Compound 595, 5-(1H-indol-4-yl)-4-(4-methyl-1H-indol-5-ylamino)nicotinonitrile] |
